“And” between values parts separate entries of the source, which are not always exact repeats. Equal values may be shown once. “Also recorded” adds a separate entry of the source.
What was measured:
[1] = target: BdGUS (Bifidobacterium dentium GUS) (Bifidobacterium dentium, UniProt D2Q7B1); assay: biochemical; design: GUS activity (hydrolysis rate of MUG) / 1/v: unit not given here
[2] = target: BdGUS (Bifidobacterium dentium, UniProt D2Q7B1); assay: biochemical; type: binding; conditions: BdGUS; Tris buffer (250 mM NaCl, 20 mM Tris, pH 8.0); 298 K
[3] = target: EcGUS (Escherichia coli, UniProt P05804); assay: Isothermal titration calorimetry, EcGUS; type: binding; conditions: EcGUS
[4] = target: EcGUS (Escherichia coli GUS) (Escherichia coli, UniProt P05804); assay: biochemical
[5] = target: LgGUS (Lactobacillus gasseri GUS) (Lactobacillus gasseri, UniProt Q9AHJ8); assay: GUS inhibition assay, hydrolysis of 4-methylumbelliferyl-β-glucuronide, LgGUS; type: biochemical; design: GUS activity (hydrolysis rate of MUG) / 1/v: unit not given here
[6] = [Inhibitor 3] = 0.25 μM, [MUG] 0.375 mM
[7] = [Inhibitor 3] = 0.25 μM, [MUG] 0.75 mM
[8] = [Inhibitor 3] = 0.25 μM, [MUG] 1.5 mM
[9] = [Inhibitor 3] = 0.25 μM, [MUG] 3 mM
[10] = [Inhibitor 3] = 0.5 μM, [MUG] 0.375 mM
[11] = [Inhibitor 3] = 0.5 μM, [MUG] 0.75 mM
[12] = [Inhibitor 3] = 0.5 μM, [MUG] 1.5 mM
[13] = [Inhibitor 3] = 0.5 μM, [MUG] 3 mM
[14] = [Inhibitor 3] = 1 μM, [MUG] 0.375 mM
[15] = [Inhibitor 3] = 1 μM, [MUG] 0.75 mM
[16] = [Inhibitor 3] = 1 μM, [MUG] 1.5 mM
[17] = [Inhibitor 3] = 1 μM, [MUG] 3 mM
[18] = [Inhibitor 3] = 2 μM, [MUG] 0.375 mM
[19] = [Inhibitor 3] = 2 μM, [MUG] 0.75 mM
[20] = [Inhibitor 3] = 2 μM, [MUG] 1.5 mM
[21] = [Inhibitor 3] = 2 μM, [MUG] 3 mM
[22] = phosphate buffer (250 mM NaCl, 20 mM KH2PO4, 100 mM Na2HPO4, pH 8.0), 298 K
[23] = [Inhibitor 3] = 0.5 μM, [MUG] 0.0375 mM
[24] = [Inhibitor 3] = 0.5 μM, [MUG] 0.075 mM
[25] = [Inhibitor 3] = 0.5 μM, [MUG] 0.15 mM
[26] = [Inhibitor 3] = 0.5 μM, [MUG] 0.3 mM
[27] = [Inhibitor 3] = 1 μM, [MUG] 0.0375 mM
[28] = [Inhibitor 3] = 1 μM, [MUG] 0.075 mM
[29] = [Inhibitor 3] = 1 μM, [MUG] 0.15 mM
[30] = [Inhibitor 3] = 1 μM, [MUG] 0.3 mM
[31] = [Inhibitor 3] = 2 μM, [MUG] 0.0375 mM

Chain of LgGUS (Lactobacillus gasseri GUS) (Q9AHJ8 1-598): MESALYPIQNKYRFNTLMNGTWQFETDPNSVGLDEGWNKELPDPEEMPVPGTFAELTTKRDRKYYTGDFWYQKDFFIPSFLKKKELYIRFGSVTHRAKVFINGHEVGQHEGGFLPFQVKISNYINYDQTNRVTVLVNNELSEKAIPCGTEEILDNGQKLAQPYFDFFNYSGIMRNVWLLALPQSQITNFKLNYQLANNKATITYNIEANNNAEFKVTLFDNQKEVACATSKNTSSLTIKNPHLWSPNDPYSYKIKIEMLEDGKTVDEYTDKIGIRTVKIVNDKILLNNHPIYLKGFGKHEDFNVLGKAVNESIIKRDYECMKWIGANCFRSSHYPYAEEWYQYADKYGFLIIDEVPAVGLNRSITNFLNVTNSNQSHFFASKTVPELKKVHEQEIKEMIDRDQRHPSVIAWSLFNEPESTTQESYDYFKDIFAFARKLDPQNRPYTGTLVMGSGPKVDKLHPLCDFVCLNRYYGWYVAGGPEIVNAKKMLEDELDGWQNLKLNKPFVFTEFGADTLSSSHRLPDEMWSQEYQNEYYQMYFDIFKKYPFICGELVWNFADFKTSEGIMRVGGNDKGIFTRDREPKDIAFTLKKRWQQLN
Chain of EcGUS (P05804 whole entry): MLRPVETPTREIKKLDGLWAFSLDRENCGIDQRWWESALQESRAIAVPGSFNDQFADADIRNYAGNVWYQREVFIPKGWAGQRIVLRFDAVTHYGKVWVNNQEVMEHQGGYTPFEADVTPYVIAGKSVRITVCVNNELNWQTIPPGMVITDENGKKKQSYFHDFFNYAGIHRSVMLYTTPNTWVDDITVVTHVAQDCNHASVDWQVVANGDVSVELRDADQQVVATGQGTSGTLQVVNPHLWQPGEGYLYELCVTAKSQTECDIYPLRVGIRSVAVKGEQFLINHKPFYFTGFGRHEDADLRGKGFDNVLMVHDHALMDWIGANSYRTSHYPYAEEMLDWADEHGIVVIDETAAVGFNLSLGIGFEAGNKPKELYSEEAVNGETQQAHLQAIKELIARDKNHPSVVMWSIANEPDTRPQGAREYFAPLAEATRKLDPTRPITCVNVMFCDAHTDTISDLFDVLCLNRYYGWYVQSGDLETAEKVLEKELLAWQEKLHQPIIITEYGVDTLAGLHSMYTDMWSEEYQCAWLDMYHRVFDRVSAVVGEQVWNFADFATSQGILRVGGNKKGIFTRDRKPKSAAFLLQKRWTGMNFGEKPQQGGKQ
Chain of BdGUS (Bifidobacterium dentium GUS) (D2Q7B1 1-668): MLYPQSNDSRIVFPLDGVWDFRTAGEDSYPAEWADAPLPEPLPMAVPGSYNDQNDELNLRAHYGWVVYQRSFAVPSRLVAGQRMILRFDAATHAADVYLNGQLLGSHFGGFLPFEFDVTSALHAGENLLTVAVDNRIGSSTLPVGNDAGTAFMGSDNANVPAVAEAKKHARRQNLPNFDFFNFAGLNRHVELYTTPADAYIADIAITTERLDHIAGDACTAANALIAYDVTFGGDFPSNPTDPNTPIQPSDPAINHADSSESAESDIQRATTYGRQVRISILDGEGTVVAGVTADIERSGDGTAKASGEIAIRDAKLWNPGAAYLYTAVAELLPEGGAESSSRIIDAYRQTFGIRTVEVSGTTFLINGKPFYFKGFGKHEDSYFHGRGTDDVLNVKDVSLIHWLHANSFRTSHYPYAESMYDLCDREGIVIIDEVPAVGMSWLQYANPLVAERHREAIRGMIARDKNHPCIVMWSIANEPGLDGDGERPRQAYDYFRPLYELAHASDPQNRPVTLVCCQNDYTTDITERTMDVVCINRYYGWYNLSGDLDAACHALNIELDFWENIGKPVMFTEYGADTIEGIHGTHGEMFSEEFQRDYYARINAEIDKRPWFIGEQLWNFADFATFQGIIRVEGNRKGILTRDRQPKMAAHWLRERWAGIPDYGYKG
Chain of EcGUS (Escherichia coli GUS) (P05804 whole entry): as the sequence (P05804 whole entry) above
Chain of BdGUS (D2Q7B1 entry or part of it): as the sequence (D2Q7B1 1-668) above

## CCCCCC[C@@H]1NC[C@@H](O)[C@H](O)[C@H]1C(=O)O [Inhibitor 3, C6-hexyl UIFG]
[1]; BdGUS, 50 mM HEPES pH 7.5, 37 °C
  Ki: 0.86 ± 0.2 µM
[1]; [6]
  1/v: 0.8098 and 0.8436 and 0.8112
  GUS activity (hydrolysis rate of MUG): 0.2757 and 0.2647 and 0.2753
[1]; [7]
  1/v: 0.4851 and 0.501 and 0.4979
  GUS activity (hydrolysis rate of MUG): 0.4603 and 0.4457 and 0.4485
[1]; [8]
  1/v: 0.3326 and 0.3553 and 0.3441
  GUS activity (hydrolysis rate of MUG): 0.6714 and 0.6286 and 0.649
[1]; [9]
  1/v: 0.2934 and 0.2936 and 0.2832
  GUS activity (hydrolysis rate of MUG): 0.761 and 0.7606 and 0.7885
[1]; [10]
  1/v: 1.013 and 1.039 and 0.9379
  GUS activity (hydrolysis rate of MUG): 0.2203 and 0.2148 and 0.2381
[1]; [11]
  1/v: 0.5713 and 0.5847 and 0.5765
  GUS activity (hydrolysis rate of MUG): 0.3909 and 0.3819 and 0.3873
[1]; [12]
  1/v: 0.386 and 0.3868 and 0.3898
  GUS activity (hydrolysis rate of MUG): 0.5784 and 0.5773 and 0.5728
[1]; [13]
  1/v: 0.2997 and 0.3073 and 0.3039
  GUS activity (hydrolysis rate of MUG): 0.7451 and 0.7267 and 0.7347
[1]; [14]
  1/v: 1.333 and 1.373 and 1.236
  GUS activity (hydrolysis rate of MUG): 0.1676 and 0.1627 and 0.1806
[1]; [15]
  1/v: 0.7658 and 0.7424 and 0.7331
  GUS activity (hydrolysis rate of MUG): 0.2916 and 0.3008 and 0.3046
[1]; [16]
  1/v: 0.4723 and 0.4867 and 0.4608
  GUS activity (hydrolysis rate of MUG): 0.4727 and 0.4588 and 0.4846
[1]; [17]
  1/v: 0.3528 and 0.337 and 0.3348
  GUS activity (hydrolysis rate of MUG): 0.6328 and 0.6626 and 0.667
[1]; [18]
  1/v: 1.957 and 1.888 and 1.908
  GUS activity (hydrolysis rate of MUG): 0.1141 and 0.1183 and 0.117
[1]; [19]
  1/v: 1.031 and 0.9985 and 1.0212
  GUS activity (hydrolysis rate of MUG): 0.2167 and 0.2236 and 0.2187
[1]; [20]
  1/v: 0.6082 and 0.615 and 0.6155
  GUS activity (hydrolysis rate of MUG): 0.3672 and 0.3631 and 0.3628
[1]; [21]
  1/v: 0.4308 and 0.4219 and 0.4288
  GUS activity (hydrolysis rate of MUG): 0.5183 and 0.5293 and 0.5208
[2]
  ΔH: Essentially no enthalpy change was evident
[3]; Tris buffer (250 mM NaCl, 20 mM Tris, pH 8.0), 298 K
  ΔH: Essentially no enthalpy change was evident; also recorded: close to zero
[3]; phosphate buffer
  ΔΔH relative to 2 (ΔΔH2–3, ΔΔH2–4): +0.04 kcal mol^−1
  –TΔΔS relative to 2 (–TΔΔS2–3, –TΔΔS2–4): –1.32 kcal mol^−1
[3]; [22]
  Kd: 0.03 ± 0.01 µM
  ΔG: –10.24 ± 0.18 kcal/mol
  ΔH: –3.95 ± 0.06 kcal/mol
  —TΔS: –6.29 ± 0.13 kcal/mol
[4]; 50 mM HEPES pH 7.5, 37 °C
  Ki: 0.003 ± 0.0006 µM
[4]; source data of Table 1, from plot of apparent Km against [inhibitor] (μM)
  Ki: 0.00316 µM
[5]; LgGUS, 50 mM sodium acetate pH 4.5, 37 °C
  Ki: 0.86 ± 0.18 µM
[5]; [23]
  1/v: 0.401 and 0.3673 and 0.39
  GUS activity (hydrolysis rate of MUG): 3104.19 and 3385.21 and 3190.6
[5]; [24]
  1/v: 0.256 and 0.2525 and 0.2536
  GUS activity (hydrolysis rate of MUG): 4839.61 and 4906.13 and 4884.95
[5]; [25]
  1/v: 0.1953 and 0.1691 and 0.1949
  GUS activity (hydrolysis rate of MUG): 6330.06 and 7304.48 and 6344.76
[5]; [26]
  1/v: 0.1452 and 0.1349 and 0.1522
  GUS activity (hydrolysis rate of MUG): 8498.3 and 9149.25 and 8113.44
[5]; [27]
  1/v: 0.5803 and 0.4953 and 0.5757
  GUS activity (hydrolysis rate of MUG): 2157.49 and 2520.77 and 2174.43
[5]; [28]
  1/v: 0.3424 and 0.3184 and 0.351
  GUS activity (hydrolysis rate of MUG): 3628.61 and 3898.42 and 3540.08
[5]; [29]
  1/v: 0.2292 and 0.221 and 0.234
  GUS activity (hydrolysis rate of MUG): 5401.09 and 5599.95 and 5290.95
[5]; [30]
  1/v: 0.17 and 0.1709 and 0.1804
  GUS activity (hydrolysis rate of MUG): 7266.77 and 7229.36 and 6851.15
[5]; [31]
  1/v: 0.7678 and 0.7232 and 0.846
  GUS activity (hydrolysis rate of MUG): 1640.4 and 1739.08 and 1492.59
